Measurements from paper PMC8269107, “Lipidation of Temporin-1CEb Derivatives as a Tool for Activity Improvement, Pros and Cons of the Approach” (International Journal of Molecular Sciences, 2021).
Converted amounts (≈) assume the structure as drawn. Where no end group is shown, it is not given here.

Experiments:
S. epidermidis PCM 2118 = experiment: MIC, broth microdilution; format: cell-based, Staphylococcus epidermidis; conditions: S. epidermidis PCM 2118, 24 h
Excerpt: (§1) Escherichia coli (PCM 2057 = ATCC 25922), Staphylococcus aureus (PCM 2054 = ATCC 25923), Staphylococcus epidermidis (PCM 2118 = ATCC 14990), Bacillus subtilis (PCM 2224 = ATCC 9799), Bacillus cereus (PCM 482 = ATCC 10702) and Pseudomonas aeruginosa (PCM 499 = ATCC 10145) were obtained from the Polish Collection of Microorganisms. Fungi strains Candida albicans (CCM 8186 = CNTC 49/64), Candida glabrata (CCM 8270 = ATCC 90030), Candida parapsilosis (CCM 8260 = ATCC 22019) and Candida krusei (CCM 8271 = ATCC 6258) were acquired from the Czech Collection of Microorganisms. S. aureus USA300 (wild type strain), the reference strain of Klebsiella pneumoniae (ATCC 13883) and clinical isolates of Pseudomonas aeruginosa (PA1, PA2) collected from nonrelated patients admitted to the Stefan Zeromski Specialist Municipal Hospital in Krakow (Poland) were kindly provided by the research group of the Department of Microbiology, Faculty of Biochemistry, Biophysics and Biotechnology, Jagiellonian University, Krakow, Poland.
(§2) Luria-Bertani broth (LB) and Sabouraud Dextrose broth (SB) (Biocorp, Poland) were used for cultivation of bacteria and fungi strains, respectively. The antimicrobial activity of the peptides were analyzed through determination of MIC (minimal inhibitory concentration) parameters according to Clinical and Laboratory Standards (CLSI) guidelines developed for aerobic bacteria and yeasts, respectively. Mueller-Hinton broth (MHB) was used as the working medium for all bacterial strains, while in the case of fungi, RPMI-1640 (with L-glutamine, without sodium bicarbonate) growth medium buffered with MOPS (morpholinepropanesulfonic acid) and supplemented with 2% glucose was used. Inoculum was prepared from freshly grown cultures of microorganisms at their exponential phase of growth. […] Plates were then incubated for 24 h at 37 °C in the case of bacteria and at 35 °C in the case of fungi. After that time, absorbance was read at 590 nm with a Perkin Elmer plate reader. Cultures without peptide were treated as positive control, while uninoculated media were defined as negative control. All measurements were run at least in triplicate.

primary fibroblasts = experiment: Cytotoxicity, MTT assay; format: cell-based, human; conditions: 24 h
Experimental: (§3) Human dermal fibroblasts were obtained as previously reported from biopsies of healthy human skin of three donors undergoing a surgery. All procedures were approved by the Ethics Committee of Medicinal University of Gdansk (NKEBN/483/2011 and NKBBN/745/2019-2020). Immortalized human HaCaT keratinocytes (DKFZ Heidelberg, Germany) were obtained commercially.
(§4) Both types of cell lines were grown in Dulbecco′s Modified Eagle′s Medium (DMEM) (Sigma-Aldrich, Germany), containing […] of glucose, […] of L- glutamine, sodium pyruvate and sodium bicarbonate. Additionally, the medium was supplemented with 10% FCS (fetal calf serum, Sigma-Aldrich, Germany), 100 U/mL of penicillin and 100 μg/mL of streptomycin (Sigma-Aldrich, Germany). The cells were grown in standard culture dishes (BD, USA) in a humidified atmosphere with 5% CO2 at […], and the medium was changed every 2 days.
(§5) The fibroblasts and keratinocytes were seeded at density of 5500 cells per well into 96-well plates suspended in a medium supplemented with 10% FCS. After 24 h from seeding, the media were exchanged with serum- and antibiotic-free DMEM and tested peptides, dissolved in sterile water, which were added, yielding a final concentration ranging from 1 to 50 μg/mL. The cells were then incubated for the next 24 h. At the end of the experiment, the cells were treated with 20 μL of MTT (5 mg/mL in PBS). After 3 h of incubation in the presence of MTT dye, the DMEM medium was discarded and replaced with 6 mM HCl in isopropanol. When the purple crystals of formazan were fully solubilized, absorbance at 570 nm was read.

keratinocytes (HaCaT) = experiment: Cytotoxicity, MTT assay; format: cell-based, human; conditions: 24 h
Experimental: as §3, §4, §5

B. cereus PCM 482 = experiment: MIC, broth microdilution; format: cell-based, Bacillus cereus; conditions: B. cereus PCM 482, 24 h
Excerpt: as §1, §2

Gelation in water = format: physicochemical; conditions: for gel formation in water: within the range of analyzed concentrations
C.glabrata CCM 8270 = experiment: MIC, broth microdilution; format: cell-based, Candida glabrata; conditions: C.glabrata CCM 8270, 24 h
Excerpt: as §1, §2

P. aeruginosa PCM 499 = experiment: MIC, broth microdilution; format: cell-based, Pseudomonas aeruginosa; conditions: P. aeruginosa PCM 499, 24 h
Excerpt: as §1, §2

C.krusei CCM 8271 = experiment: MIC, broth microdilution; format: cell-based, Candida krusei; conditions: C.krusei CCM 8271, 24 h
Excerpt: as §1, §2

B. subtilis PCM 2224 = experiment: MIC, broth microdilution; format: cell-based, Bacillus subtilis; conditions: B. subtilis PCM 2224, 24 h
Excerpt: as §1, §2

C.parapsilosis CCM 8260 = experiment: MIC, broth microdilution; format: cell-based, Candida parapsilosis; conditions: C.parapsilosis CCM 8260, 24 h
Excerpt: as §1, §2

C.albicans CCM 8186 = experiment: MIC, broth microdilution; format: cell-based, Candida albicans; conditions: C.albicans CCM 8186, 24 h
Excerpt: as §1, §2

S. aureus PCM 2054 = experiment: MIC, broth microdilution; format: cell-based, Staphylococcus aureus; conditions: S. aureus PCM 2054, standard Mueller-Hinton broth, 24 h
Excerpt: as §1, §2

E. coli PCM 2057 = experiment: MIC, broth microdilution; format: cell-based, Escherichia coli; conditions: E. coli PCM 2057, 24 h
Excerpt: as §1, §2

P. aeruginosa PA1 = format: cell-based, Pseudomonas aeruginosa; conditions: PA1, 24 h
Excerpt: as §1, §2

P. aeruginosa PA2 = format: cell-based, Pseudomonas aeruginosa; conditions: PA2, 24 h
Excerpt: as §1, §2

K.pneumoniae ATCC 13883 = format: cell-based, Klebsiella pneumoniae; conditions: ATCC 13883, 24 h
Excerpt: as §1, §2

| Compound | MIC100 (S. epidermidis PCM 2118) | IC50 (primary fibroblasts) [µg/mL] | IC50 (keratinocytes (HaCaT)) [µg/mL] | MIC100 (B. cereus PCM 482) | gelation in water (Gelation in water; concentrations of up to 5 mg/mL) | MIC100 (C.glabrata CCM 8270) | MIC100 (P. aeruginosa PCM 499) | MIC100 (C.krusei CCM 8271) | MIC100 (B. subtilis PCM 2224) | MIC100 (C.parapsilosis CCM 8260) | MIC100 (C.albicans CCM 8186) | MIC100 (S. aureus PCM 2054) | MIC100 (E. coli PCM 2057) | gelation of water solution (Gelation in water; concentration of 1 mg/mL) | gel formation in water (Gelation in water) | MIC100 (P. aeruginosa PA1) [µg/mL] | MIC100 (P. aeruginosa PA2) [µg/mL] | MIC100 (K.pneumoniae ATCC 13883) [µg/mL] |
| --- | --- | --- | --- | --- | --- | --- | --- | --- | --- | --- | --- | --- | --- | --- | --- | --- | --- | --- |
| CCCCC(=O)NCCC(=O)N[C@@H](Cc1c[nH]cn1)C(=O)O [Compound C5-CAR, CH3(CH2)3C(O)-βAH] | Non-inhibitory | >50 | >50 | Non-inhibitory | gelation in water was not observed | Non-inhibitory | Non-inhibitory | Non-inhibitory | Non-inhibitory | Non-inhibitory | Non-inhibitory | Non-inhibitory | Non-inhibitory | – | – | – | – | – |
| CCCCCCCCCCCC(=O)NCCC(=O)N[C@@H](Cc1c[nH]cn1)C(=O)O [Compound C12-CAR, CH3(CH2)10C(O)-βAH] | Non-inhibitory | >50 | >50 | Non-inhibitory | – | Non-inhibitory | Non-inhibitory | Non-inhibitory | Non-inhibitory | Non-inhibitory | Non-inhibitory | Non-inhibitory | Non-inhibitory | underwent gelation | formed self-standing gels in water | – | – | – |
| CCCCCCCCCCCCCCCC(=O)NCCC(=O)N[C@@H](Cc1c[nH]cn1)C(=O)O [Compound C16-CAR, CH3(CH2)14C(O)-βAH] | Non-inhibitory | 12.5 (≈ 26.9 µM) | 25 (≈ 53.8 µM) | Non-inhibitory | – | Non-inhibitory | Non-inhibitory | Non-inhibitory | Non-inhibitory | Non-inhibitory | Non-inhibitory | Non-inhibitory | Non-inhibitory | – | formed self-standing gels in water | – | – | – |
| IKKILSKIKKLL-NH2 (C-terminus assumed) [DK5, reference compound] | – | >50 | >50 | – | – | – | – | – | – | – | – | – | – | – | – | 100 | 100 | >200 |
